Test results taken from patent US11608335B2, “Somatostatin modulators and uses thereof” (CRINETICS PHARMACEUTICALS, INC., priority 2018, dated 2023).

The compounds below were run against human somatostatin receptor subtype 5 (Homo sapiens, UniProt P35346) (assay: cAMP assay for SST5R (inhibition of cAMP via human SST5 receptor)). Settings: not given.
human somatostatin receptor subtype 5, sequence (P35346 whole entry): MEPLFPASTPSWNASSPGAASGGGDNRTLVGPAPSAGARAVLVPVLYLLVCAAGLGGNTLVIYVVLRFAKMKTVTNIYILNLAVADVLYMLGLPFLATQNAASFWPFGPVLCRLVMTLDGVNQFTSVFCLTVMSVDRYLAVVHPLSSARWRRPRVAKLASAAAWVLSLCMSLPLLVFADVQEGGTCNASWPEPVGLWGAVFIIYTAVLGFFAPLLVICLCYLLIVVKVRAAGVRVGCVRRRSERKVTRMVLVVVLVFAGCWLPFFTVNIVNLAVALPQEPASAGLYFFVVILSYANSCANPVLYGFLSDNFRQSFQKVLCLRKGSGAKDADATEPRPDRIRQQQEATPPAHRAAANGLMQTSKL

Question: Which EC50 does the source give for `Cc1cc(-c2cncc(-c3nc4cccc(F)c4[nH]3)c2N2CC[C@H](N)C2)cc(N)n1` [Compound 2-130, 4-[(3S)-3-aminopyrrolidin-1-yl]-5-(4-fluoro-1H-1,3-benzodiazol-2-yl)-6′-methyl-[3,4′-bipyridin]-2′-amine] here?
Answer: The EC50 was 100 to 1000 nM.

Question: With `CS(=O)(=O)c1cccc(-c2cncc(-c3nc4cc(F)cc(F)c4[nH]3)c2N2CC[C@H](N)C2)c1` [Compound 2-93, (3S)-1-[3-(4,6-difluoro-1H-1,3-benzodiazol-2-yl)-5-(3-methanesulfonylphenyl)pyridin-4-yl]pyrrolidin-3-amine] as the compound, how does the EC50 read?
Answer: Its EC50 is 100 to 1000 nM.

Question: For `Cc1cc(F)cc(-c2cncc(-c3nc4cc(F)cc(F)c4[nH]3)c2N2CC(C(N)CO)C2)c1` (stereo not drawn) [Compound 1-49, 2-Amino-2-{1-[3-(4,6-difluoro-1H-1,3-benzodiazol-2-yl)-5-(3-fluoro-5-methylphenyl)pyridin-4-yl]azetidin-3-yl}ethan-1-ol], which EC50 is on record?
Answer: Its EC50 is less than 10 nM.

Question: How did the EC50 turn out when `COc1c(F)cccc1-c1cncc(-c2nc3cc(F)cc(F)c3[nH]2)c1N1CC(C(C)N)C1` (stereo not drawn) [Compound 1-73, 1-{1-[3-(4,6-difluoro-1H-1,3-benzodiazol-2-yl)-5-(3-fluoro-2-methoxyphenyl)pyridin-4-yl]azetidin-3-yl}ethan-1-amine] was run?
Answer: The EC50 was less than 10 nM.

Question: With `NCC1CN(c2c(-c3nc4cc(F)cc(F)c4[nH]3)cncc2-c2cccc(Cl)c2F)C1` [Compound 1-57, 1-{1-[3-(3-chloro-2-fluorophenyl)-5-(4,6-difluoro-1H-1,3-benzodiazol-2-yl)pyridin-4-yl]azetidin-3-yl}methanamine] as the compound, how does the EC50 read?
Answer: The EC50 was 10 to 100 nM.

Question: For `COc1ccc(-c2cncc(-c3nc4cccc(F)c4[nH]3)c2N2CC[C@H](N)C2)cc1C(N)=O` [Compound 2-73, 5-{4-[(3S)-3-aminopyrrolidin-1-yl]-5-(4-fluoro-1H-1,3-benzodiazol-2-yl)pyridin-3-yl}-2-methoxybenzamide], which EC50 is on record?
Answer: Its EC50 is greater than 1000 nM.

Question: How did the EC50 turn out when `N#Cc1cc(F)cc(-c2cncc(-c3nc4cc(F)cc(F)c4[nH]3)c2N2CC[C@H](N)C2)c1` [Compound 2-87, 3-{4-[(3S)-3-aminopyrrolidin-1-yl]-5-(4,6-difluoro-1H-1,3-benzodiazol-2-yl)pyridin-3-yl}-5-fluorobenzonitrile] was run?
Answer: The EC50 was less than 10 nM.

Question: How did the EC50 turn out when `Cn1c(-c2cncc(-c3ccnc(C#N)c3)c2N2CC[C@](C)(N)C2)nc2c(Cl)cccc21` [Compound 2-151, 4-[(3S)-3-amino-3-methylpyrrolidin-1-yl]-5-(4-chloro-1-methyl-1H-1,3-benzodiazol-2-yl)-[3,4′-bipyridine]-2′-carbonitrile] was run?
Answer: Its EC50 is less than 10 nM.

Question: For `Cc1cc(F)cc(-c2cncc(-c3nc4cccnc4[nH]3)c2N2CC(CN)C2)c1` [Compound 1-23, 1-{1-[3-(3-fluoro-5-methylphenyl)-5-{1H-imidazo[4,5-b]pyridin-2-yl}pyridin-4-yl]azetidin-3-yl}methanamine], which EC50 is on record?
Answer: The EC50 was 100 to 1000 nM.

Question: With `COc1cc(F)cc(-c2cncc(-c3nc4cc(F)cc(F)c4[nH]3)c2N2CC(CN)C2)c1` [Compound 1-58, 1-{1-[3-(4,6-difluoro-1H-1,3-benzodiazol-2-yl)-5-(3-fluoro-5-methoxyphenyl)pyridin-4-yl]azetidin-3-yl}methanamine] as the compound, how does the EC50 read?
Answer: Its EC50 is less than 10 nM.

Question: Which EC50 does the source give for `NCC1CN(c2c(-c3cccc(Cl)c3)cncc2-c2nc3c(F)cc(F)cc3[nH]2)C1` [Compound 1-53, 1-{1-[3-(3-chlorophenyl)-5-(4,6-difluoro-1H-1,3-benzodiazol-2-yl)pyridin-4-yl]azetidin-3-yl}methanamine] here?
Answer: Its EC50 is less than 10 nM.

Question: With `Cn1c(-c2cncc(-c3cc(F)cc(C#N)c3)c2N2CC[C@H](N)C2)nc2ccccc21` [Compound 2-110, 3-{4-[(3S)-3-aminopyrrolidin-1-yl]-5-(1-methyl-1H-1,3-benzodiazol-2-yl)pyridin-3-yl}-5-fluorobenzonitrile] as the compound, how does the EC50 read?
Answer: Its EC50 is 10 to 100 nM.

Question: With `Cc1ccnc2[nH]c(-c3cncc(-c4cc(F)cc(C(N)=O)c4)c3N3CC[C@](C)(N)C3)nc12` [Compound 2-169, 3-{4-[(3S)-3-amino-3-methylpyrrolidin-1-yl]-5-{7-methyl-1H-imidazo[4,5-b]pyridin-2-yl}pyridin-3-yl}-5-fluorobenzamide] as the compound, how does the EC50 read?
Answer: The EC50 was less than 10 nM.

Question: With `CN(C)C(=O)c1cccc(-c2cncc(-c3nc4cccc(F)c4[nH]3)c2N2CCC(C)(N)C2)c1` (stereo not drawn) [Compound 2-31, 3-[4-(3-amino-3-methylpyrrolidin-1-yl)-5-(4-fluoro-1H-1,3-benzodiazol-2-yl)pyridin-3-yl]-N,N-dimethylbenzamide] as the compound, how does the EC50 read?
Answer: The EC50 was 100 to 1000 nM.

Question: For `COc1ccc2[nH]c(-c3cncc(-c4cc(C)cc(F)c4)c3N3CC(CN)C3)nc2c1` [Compound 1-12, 1-{1-[3-(3-fluoro-5-methylphenyl)-5-(5-methoxy-1H-1,3-benzodiazol-2-yl)pyridin-4-yl]azetidin-3-yl}methanamine], which EC50 is on record?
Answer: Its EC50 is 100 to 1000 nM.

Question: For `Cc1cc(F)cc(-c2cncc(-c3nc4cccc(F)c4n3C)c2N2CC(CN)C2)c1` [Compound 1-25, 1-{1-[3-(7-Fluoro-1-methyl-1H-1,3-benzodiazol-2-yl)-5-(3-fluoro-5-methylphenyl)pyridin-4-yl]azetidin-3-yl}methanamine], which EC50 is on record?
Answer: Its EC50 is 10 to 100 nM.

Question: With `COCCn1c(-c2cncc(-c3cc(F)cc(C#N)c3)c2N2CC[C@H](N)C2)nc2ccccc21` [Compound 2-112, 3-{4-[(3S)-3-aminopyrrolidin-1-yl]-5-[1-(2-methoxyethyl)-1H-1,3-benzodiazol-2-yl]pyridin-3-yl}-5-fluorobenzonitrile] as the compound, how does the EC50 read?
Answer: The EC50 was 100 to 1000 nM.

Question: Which EC50 does the source give for `Cc1cccc2c1nc(-c1cncc(-c3cc(F)cc(C#N)c3)c1N1CC[C@H](N)C1)n2C` [Compound 2-114, 3-{4-[(3S)-3-aminopyrrolidin-1-yl]-5-(1,4-dimethyl-1H-1,3-benzodiazol-2-yl)pyridin-3-yl}-5-fluorobenzonitrile] here?
Answer: Its EC50 is less than 10 nM.

Question: Which EC50 does the source give for `Cc1cc(F)cc(-c2cncc(-c3nc4cc(F)c(Cl)cc4[nH]3)c2N2CC(CN)C2)c1` [Compound 1-14, 1-{1-[3-(5-chloro-6-fluoro-1H-1,3-benzodiazol-2-yl)-5-(3-fluoro-5-methylphenyl)pyridin-4-yl]azetidin-3-yl}methanamine] here?
Answer: Its EC50 is 10 to 100 nM.

Question: How did the EC50 turn out when `CCc1cccc2[nH]c(-c3cncc(-c4cccc(C#N)c4)c3N3CC[C@H](N)C3)nc12` [Compound 2-100, 3-{4-[(3S)-3-aminopyrrolidin-1-yl]-5-(4-ethyl-1H-1,3-benzodiazol-2-yl)pyridin-3-yl}benzonitrile] was run?
Answer: The EC50 was less than 10 nM.

Question: Which EC50 does the source give for `N#Cc1cc(-c2cncc(-c3nc4c(F)ccc(F)c4[nH]3)c2N2CC[C@H](N)C2)ccc1C(F)(F)F` [Compound 2-48, 5-{4-[(3S)-3-aminopyrrolidin-1-yl]-5-(4,7-difluoro-1H-1,3-benzodiazol-2-yl)pyridin-3-yl}-2-(trifluoromethyl)benzonitrile] here?
Answer: Its EC50 is 10 to 100 nM.

Question: For `Cc1cccc2cc(-c3cncc(-c4cc(F)cc(C#N)c4)c3N3CC[C@H](N)C3)[nH]c12` [Compound 2-137, 3-{4[(3S)-3-aminopyrrolidin-1-yl]-5-(7-methyl-1H-indol-2-yl)pyridin-3-yl}-5-fluorobenzonitrile], which EC50 is on record?
Answer: Its EC50 is 10 to 100 nM.

Question: With `COc1ccc2nc(-c3cncc(-c4cc(F)cc(Cl)c4)c3N3CC[C@H](N)C3)[nH]c2c1` [Compound 2-104, (3S)-1-[3-(3-chloro-5-fluorophenyl)-5-(5-methoxy-1H-1,3-benzodiazol-2-yl)pyridin-4-yl]pyrrolidin-3-amine] as the compound, how does the EC50 read?
Answer: The EC50 was 10 to 100 nM.

Question: `Cn1c(-c2cncc(-c3cc(F)cc(C#N)c3)c2N2CC[C@H](N)C2)nc2cccc(Cl)c21` [Compound 2-117, 3-{4-[(3S)-3-aminopyrrolidin-1-yl]-5-(7-chloro-1-methyl-1H-1,3-benzodiazol-2-yl)pyridin-3-yl}-5-fluorobenzonitrile] was tested. Which EC50 did it give?
Answer: Its EC50 is 10 to 100 nM.

Question: How did the EC50 turn out when `N#CCn1c(-c2cncc(-c3cc(F)cc(C#N)c3)c2N2CC[C@H](N)C2)nc2ccccc21` [Compound 2-113, 3-{4-[(3S)-3-aminopyrrolidin-1-yl]-5-[1-(cyanomethyl)-1H-1,3-benzodiazol-2-yl]pyridin-3-yl}-5-fluorobenzonitrile] was run?
Answer: The EC50 was 100 to 1000 nM.

Question: For `Cc1cc(F)cc(-c2cncc(-c3nc4c(F)cccc4n3C)c2N2CC(CN)C2)c1` [Compound 1-24, 1-{1-[3-(4-fluoro-1-methyl-1H-1,3-benzodiazol-2-yl)-5-(3-fluoro-5-methylphenyl)pyridin-4-yl]azetidin-3-yl}methanamine], which EC50 is on record?
Answer: Its EC50 is 10 to 100 nM.

Question: How did the EC50 turn out when `N#Cc1cc(F)cc(-c2cncc(-c3nc4ccc(F)c(F)c4[nH]3)c2N2CC[C@H](N)C2)c1` [Compound 2-99, 3-{4-[(3S)-3-aminopyrrolidin-1-yl]-5-(4,5-difluoro-1H-1,3-benzodiazol-2-yl)pyridin-3-yl}-5-fluorobenzonitrile] was run?
Answer: Its EC50 is less than 10 nM.

Question: With `Cc1cc(C)cc(-c2cncc(-c3nc4cc(F)cc(F)c4[nH]3)c2N2CC(CN)C2)c1` [Compound 1-19, 1-{1-[3-(4,6-difluoro-1H-1,3-benzodiazol-2-yl)-5-(3,5-dimethylphenyl)pyridin-4-yl]azetidin-3-yl}methanamine] as the compound, how does the EC50 read?
Answer: The EC50 was 10 to 100 nM.

Question: With `Cc1ccc(-c2cncc(-c3nc4cc(F)cc(F)c4[nH]3)c2N2CC(CN)C2)cc1F` [Compound 1-55, 1-{1-[3-(4,6-difluoro-1H-1,3-benzodiazol-2-yl)-5-(3-fluoro-4-methylphenyl)pyridin-4-yl]azetidin-3-yl}methanamine] as the compound, how does the EC50 read?
Answer: Its EC50 is 10 to 100 nM.

Question: With `Cn1c(-c2cncc(-c3cccc(C#N)c3)c2N2CC[C@H](N)C2)nc2c(Cl)cccc21` [Compound 2-75, 3-{4-[(3S)-3-aminopyrrolidin-1-yl]-5-(4-chloro-1-methyl-1H-1,3-benzodiazol-2-yl)pyridin-3-yl}benzonitrile] as the compound, how does the EC50 read?
Answer: Its EC50 is less than 10 nM.

Question: For `N#Cc1ccc(-c2cncc(-c3nc4cccc(F)c4[nH]3)c2N2CC[C@H](N)C2)cc1` [Compound 2-42, 4-{4-[(3S)-3-aminopyrrolidin-1-yl]-5-(4-fluoro-1H-1,3-benzodiazol-2-yl)pyridin-3-yl}benzonitrile], which EC50 is on record?
Answer: Its EC50 is 100 to 1000 nM.

Question: Which EC50 does the source give for `N#Cc1cc(-c2cncc(-c3nc4cccc(F)c4[nH]3)c2N2CC[C@H](N)C2)ccc1O` [Compound 2-36, 5-{4-[(3S)-3-aminopyrrolidin-1-yl]-5-(4-fluoro-1H-1,3-benzodiazol-2-yl)pyridin-3-yl}-2-hydroxybenzonitrile] here?
Answer: Its EC50 is 100 to 1000 nM.

Same assay, conditions: SST5 over SST2, given as number (comparison compounds)

Question: How did the “Fold selectivity for SST5 vs SST2” value turn out when `COc1cc(Cl)cc2[nH]c(-c3cncc(-c4cc(C)cc(F)c4)c3N3CCC(N)CC3)nc12` was run?
Answer: The value was 0.00004.
